Each block holds one compound with its values, some of them ahead of it.
Columns and labels:
[1] = Metabolite profiling of human feces after [14C] cabozantinib (mass balance study); type: in vivo; conditions: single 175 mg oral dose
Experimental: (§1) The objective of this study was to profile and identify metabolites of cabozantinib in human plasma, urine, and feces.
(§2) The plasma, urine, and fecal samples were collected from the 8 subjects for the metabolite profiling.
(§3) All samples were shipped to QPS LLC (Newark, Del.) and stored at −70° C. HPLC/tandem MS coupled with a radio flow-through detector (RFD) was used for metabolite profiling and identification for samples with sufficient levels of radioactivity.
(§4) HPLC fraction collection followed by counting with TopCount NXT™ was used for radioquantitation of plasma samples with sufficient levels of radioactivity. […] HPLC Method 1 was used for the analysis of pooled urine and fecal samples and individual plasma samples from different time points. […] HPLC Method 3 was used for pooled plasma samples.
The supernatants were dried under a nitrogen stream, and the residues were reconstituted in water:ACN:FA (80:20:0.1, v/v/v). The reconstituted samples were centrifuged at 15,000 rpm for 10 min before analysis.
(§5) The system for metabolite profiling and identification (HPLC/MS/RFD) consisted of a HTC PAL autosampler, a Surveyor HPLC pump, a LTQ linear ion trap mass spectrometer, and a β-RAM Model 3 RFD. The data obtained by mass spectrometry and RFD were processed by Xcalibur and Laura Lite 3 software, respectively. The HPLC eluent was split between the RFD and mass spectrometer with a ratio of 3 to 1. The following are the summary of the conditions for HPLC, mass spectrometer, and RFD.
(§6) Mass spectra (MS, MS/MS, and MS/MS/MS) of cabozantinib and its metabolite standards, provided by the Exelixis, Inc., were acquired on an ion trap mass spectrometer. Major fragment patterns were proposed. Identification of these metabolites was confirmed by matching mass spectra (MS and MS/MS) and retention times with authentic reference standards. For other unknown metabolites, molecular ions were searched on LC/MS chromatograms operating in full scan positive as well as negative ionization modes at the same retention times as those found on LC-radio chromatogram. Product ion mass spectra and high resolution mass spectra were then acquired for the corresponding molecular ions. Putative metabolite structures were proposed based on the analysis of their mass fragment patterns.
For the pooled fecal samples, percent of total radioactivity in the pooled sample for each peak was calculated as the percent of total non-parent plus parent in the pooled samples: % of total non-parent plus parent in the pooled samples=(total radioactivity of the peak/total radioactivity of the parent and non-parent peaks)×100

c-Met = c-Met (Homo sapiens (Human), UniProt P08581); experiment: Kinase activity, EMD Millipore Kinase Profiler; type: biochemical; conditions: for IC50: read-out: c-Met Std (IC50); for inhibition at 1 µM: read-out: c-Met percent inhibition
Flt-1 Alpha = Flt-1 Alpha (Homo sapiens (Human), UniProt P17948); experiment: Kinase activity, EMD Millipore Kinase Profiler; conditions: for inhibition at 1 µM: read-out: Flt-1 Alpha percent inhibition
KDR = KDR (Homo sapiens (Human), UniProt P35968); experiment: Kinase activity, EMD Millipore Kinase Profiler; type: biochemical; conditions: for IC50: read-out: KDR Std (IC50); for inhibition at 1 µM: read-out: KDR percent inhibition
Aurora B MP = Aurora B MP (Homo sapiens (Human), UniProt Q96GD4); experiment: Kinase activity, EMD Millipore Kinase Profiler; type: biochemical; conditions: for IC50: read-out: Aurora B MP 8pt Std (IC50); for inhibition at 1 µM: read-out: Aurora B MP percent inhibition
Flt-3 = Flt-3 (Homo sapiens (Human), UniProt P36888); experiment: Kinase activity, EMD Millipore Kinase Profiler; type: biochemical; conditions: for IC50: read-out: Flt-3 Std (IC50); for inhibition at 1 µM: read-out: Flt-3 percent inhibition
Flt-4 = Flt-4 (Homo sapiens (Human), UniProt P35916); experiment: Kinase activity, EMD Millipore Kinase Profiler; type: biochemical; conditions: for inhibition at 1 µM: read-out: Flt-4 percent inhibition
RET = RET (Homo sapiens (Human), UniProt P07949); experiment: Kinase activity, EMD Millipore Kinase Profiler; type: biochemical; conditions: read-out: RET percent inhibition
[2] = Metabolite profiling of human plasma after [14C] cabozantinib (mass balance study); type: in vivo; conditions: single 175 mg oral dose of cabozantinib (L-malate salt) with [14C] cabozantinib, HPLC Method 1
Experimental: as §1, §2, §3, §4
For the investigation of co-eluting metabolites, nonradiolabeled plasma samples of six subjects were pooled, processed, and analyzed for pre-dose, 1-7, 8-96, and 120-336 hours post-dose. […] [^14C]
Radiolabeled and non-radiolabeled plasma samples were extracted employing the same method, using 1.0-2 mL plasma samples, depending on the volume available and radioactivity level of the samples. The supernatants were evaporated to dryness under a stream of nitrogen in an ambient water bath, and the residues were reconstituted in 0.35-0.5 mL of MeOH:ACN:water (10:20:70, v/v/v). The reconstituted samples were centrifuged at 15,000 rpm for 10 minutes. Aliquots of the supernatants were injected onto the HPLC system for analysis.
as §5
as §6, with “Product ion mass spectra and high resolution mass spectra were then acquired for the corresponding molecular ions. Putative metabolite structures were proposed based on the analysis of their mass fragment patterns.” left out
For plasma samples, percent of total radioactivity in the sample for each peak at each time point was calculated and converted to ng/mL.

[3] = Metabolite profiling of human urine after [14C] cabozantinib (mass balance study); type: in vivo; conditions: single 175 mg oral dose; for presence in pooled urine sample: human urine
Experimental: as §1, §2, §3, §4
The radioactivity in pooled urine and reconstituted solution was counted using LSC, and the reconstitution recovery calculated. […] Each pooled urine sample was lyophilized, the residue was reconstituted in water:ACN:FA (80:20:0.1, v/v/v), and the reconstituted sample was centrifuged at 15,000 rpm for 10 min before analysis.
as §5, §6
For the pooled urine samples, percent of total radioactivity in the pooled sample for each peak was calculated as the % of total non-parent in the pooled samples: % of total non-parent in the pooled samples=(total radioactivity of the peak/total radioactivity of the non-parent peaks)×100

Chain of Flt-4 (P35916 25-1363): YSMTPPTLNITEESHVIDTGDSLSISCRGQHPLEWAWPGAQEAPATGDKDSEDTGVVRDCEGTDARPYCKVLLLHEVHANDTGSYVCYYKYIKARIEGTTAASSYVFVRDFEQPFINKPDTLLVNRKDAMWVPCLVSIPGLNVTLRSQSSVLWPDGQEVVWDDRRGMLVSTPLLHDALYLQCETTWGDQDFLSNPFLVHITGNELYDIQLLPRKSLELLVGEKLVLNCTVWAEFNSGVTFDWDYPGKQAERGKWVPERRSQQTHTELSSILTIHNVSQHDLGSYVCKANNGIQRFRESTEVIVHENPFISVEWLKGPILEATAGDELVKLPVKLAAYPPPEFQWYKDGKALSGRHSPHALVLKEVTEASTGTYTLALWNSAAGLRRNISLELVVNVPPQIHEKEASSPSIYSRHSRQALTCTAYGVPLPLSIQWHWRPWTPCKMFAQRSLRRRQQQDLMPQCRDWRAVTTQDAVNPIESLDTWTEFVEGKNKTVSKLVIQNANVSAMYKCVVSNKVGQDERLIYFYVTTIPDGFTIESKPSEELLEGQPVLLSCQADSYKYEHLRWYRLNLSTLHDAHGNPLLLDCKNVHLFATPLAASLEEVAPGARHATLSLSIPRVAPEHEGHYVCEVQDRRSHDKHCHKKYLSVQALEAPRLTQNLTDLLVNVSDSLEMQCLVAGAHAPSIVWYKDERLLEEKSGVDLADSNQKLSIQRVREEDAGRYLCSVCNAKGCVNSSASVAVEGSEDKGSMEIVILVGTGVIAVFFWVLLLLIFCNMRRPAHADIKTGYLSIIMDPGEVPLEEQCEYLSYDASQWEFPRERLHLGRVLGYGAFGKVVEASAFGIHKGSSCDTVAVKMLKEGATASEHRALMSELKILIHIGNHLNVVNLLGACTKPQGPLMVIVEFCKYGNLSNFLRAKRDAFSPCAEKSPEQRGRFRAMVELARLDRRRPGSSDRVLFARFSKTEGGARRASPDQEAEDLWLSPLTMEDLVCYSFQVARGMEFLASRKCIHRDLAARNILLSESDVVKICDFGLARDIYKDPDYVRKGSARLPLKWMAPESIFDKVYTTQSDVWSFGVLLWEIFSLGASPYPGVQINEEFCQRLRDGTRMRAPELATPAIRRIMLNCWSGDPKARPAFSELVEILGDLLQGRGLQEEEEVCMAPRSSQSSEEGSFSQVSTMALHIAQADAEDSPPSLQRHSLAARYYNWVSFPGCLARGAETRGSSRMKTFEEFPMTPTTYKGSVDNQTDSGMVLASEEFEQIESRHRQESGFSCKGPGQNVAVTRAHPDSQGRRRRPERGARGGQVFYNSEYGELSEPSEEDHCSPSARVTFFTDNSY
Chain of Flt-3 (P36888 27-993): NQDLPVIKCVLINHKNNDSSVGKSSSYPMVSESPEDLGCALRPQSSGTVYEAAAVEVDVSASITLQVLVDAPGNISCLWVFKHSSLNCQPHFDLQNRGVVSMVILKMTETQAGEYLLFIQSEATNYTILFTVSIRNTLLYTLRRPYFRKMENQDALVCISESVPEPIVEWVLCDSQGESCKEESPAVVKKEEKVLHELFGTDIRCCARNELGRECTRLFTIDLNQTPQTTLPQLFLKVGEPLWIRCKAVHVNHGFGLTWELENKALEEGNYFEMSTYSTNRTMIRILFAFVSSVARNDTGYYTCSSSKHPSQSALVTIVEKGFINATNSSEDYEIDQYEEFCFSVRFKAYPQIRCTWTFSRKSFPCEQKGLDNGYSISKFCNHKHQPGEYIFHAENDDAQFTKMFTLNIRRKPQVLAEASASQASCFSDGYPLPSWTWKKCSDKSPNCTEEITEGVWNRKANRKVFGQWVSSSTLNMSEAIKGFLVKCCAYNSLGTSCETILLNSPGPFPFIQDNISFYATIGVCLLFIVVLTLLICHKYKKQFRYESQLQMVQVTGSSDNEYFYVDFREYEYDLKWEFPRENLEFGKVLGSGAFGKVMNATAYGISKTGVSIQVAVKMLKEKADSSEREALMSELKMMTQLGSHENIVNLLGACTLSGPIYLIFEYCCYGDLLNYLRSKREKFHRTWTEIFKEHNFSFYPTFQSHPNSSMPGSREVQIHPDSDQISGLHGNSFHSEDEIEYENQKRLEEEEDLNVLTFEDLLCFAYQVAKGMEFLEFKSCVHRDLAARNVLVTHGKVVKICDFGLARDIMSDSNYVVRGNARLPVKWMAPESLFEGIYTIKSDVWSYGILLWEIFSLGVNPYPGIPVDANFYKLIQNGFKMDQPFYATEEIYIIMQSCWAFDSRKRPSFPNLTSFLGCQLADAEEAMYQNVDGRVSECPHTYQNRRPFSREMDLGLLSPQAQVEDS
Chain of Flt-1 Alpha (P17948 27-1338): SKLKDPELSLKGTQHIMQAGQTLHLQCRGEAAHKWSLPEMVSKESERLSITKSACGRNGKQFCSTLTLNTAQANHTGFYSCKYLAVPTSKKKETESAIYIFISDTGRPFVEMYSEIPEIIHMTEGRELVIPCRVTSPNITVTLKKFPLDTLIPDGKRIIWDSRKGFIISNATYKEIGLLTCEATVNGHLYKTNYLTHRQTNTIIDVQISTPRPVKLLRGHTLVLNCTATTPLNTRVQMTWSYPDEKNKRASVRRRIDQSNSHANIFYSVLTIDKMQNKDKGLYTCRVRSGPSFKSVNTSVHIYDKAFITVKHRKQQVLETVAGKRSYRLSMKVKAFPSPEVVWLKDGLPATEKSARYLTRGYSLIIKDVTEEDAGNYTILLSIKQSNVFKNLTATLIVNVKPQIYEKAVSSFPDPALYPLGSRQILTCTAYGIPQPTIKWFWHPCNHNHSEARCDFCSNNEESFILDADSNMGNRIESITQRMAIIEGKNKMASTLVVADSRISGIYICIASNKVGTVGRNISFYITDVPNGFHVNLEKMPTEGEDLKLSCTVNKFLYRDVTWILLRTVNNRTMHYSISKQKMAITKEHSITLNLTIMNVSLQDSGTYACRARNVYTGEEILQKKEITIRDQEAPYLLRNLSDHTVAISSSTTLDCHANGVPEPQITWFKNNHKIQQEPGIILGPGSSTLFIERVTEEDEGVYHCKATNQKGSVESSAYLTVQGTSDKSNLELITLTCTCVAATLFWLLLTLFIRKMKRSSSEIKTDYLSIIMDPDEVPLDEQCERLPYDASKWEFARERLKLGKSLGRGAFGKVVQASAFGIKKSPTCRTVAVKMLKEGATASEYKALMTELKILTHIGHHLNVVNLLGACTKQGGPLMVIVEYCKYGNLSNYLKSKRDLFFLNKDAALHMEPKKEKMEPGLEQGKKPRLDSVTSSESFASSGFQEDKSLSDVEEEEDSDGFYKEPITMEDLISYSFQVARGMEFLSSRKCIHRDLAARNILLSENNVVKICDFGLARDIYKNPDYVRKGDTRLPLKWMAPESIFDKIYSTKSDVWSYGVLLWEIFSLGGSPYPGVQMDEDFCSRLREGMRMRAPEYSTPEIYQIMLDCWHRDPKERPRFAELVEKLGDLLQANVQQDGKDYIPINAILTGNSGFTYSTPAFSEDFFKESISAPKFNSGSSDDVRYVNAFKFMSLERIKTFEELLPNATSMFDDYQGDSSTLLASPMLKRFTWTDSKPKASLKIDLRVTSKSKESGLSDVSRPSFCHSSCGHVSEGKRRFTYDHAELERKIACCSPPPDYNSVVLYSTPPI
Chain of Aurora B MP (Q96GD4 whole entry): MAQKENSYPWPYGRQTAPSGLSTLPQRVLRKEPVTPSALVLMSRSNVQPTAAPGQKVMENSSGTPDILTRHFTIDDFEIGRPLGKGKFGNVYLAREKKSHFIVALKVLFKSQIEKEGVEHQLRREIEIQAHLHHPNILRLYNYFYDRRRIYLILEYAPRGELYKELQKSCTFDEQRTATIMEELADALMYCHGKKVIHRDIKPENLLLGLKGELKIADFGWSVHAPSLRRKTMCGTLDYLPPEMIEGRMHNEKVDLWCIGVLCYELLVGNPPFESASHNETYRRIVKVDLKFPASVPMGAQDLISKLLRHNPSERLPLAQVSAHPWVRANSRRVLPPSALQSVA
Chain of RET (P07949 29-1114): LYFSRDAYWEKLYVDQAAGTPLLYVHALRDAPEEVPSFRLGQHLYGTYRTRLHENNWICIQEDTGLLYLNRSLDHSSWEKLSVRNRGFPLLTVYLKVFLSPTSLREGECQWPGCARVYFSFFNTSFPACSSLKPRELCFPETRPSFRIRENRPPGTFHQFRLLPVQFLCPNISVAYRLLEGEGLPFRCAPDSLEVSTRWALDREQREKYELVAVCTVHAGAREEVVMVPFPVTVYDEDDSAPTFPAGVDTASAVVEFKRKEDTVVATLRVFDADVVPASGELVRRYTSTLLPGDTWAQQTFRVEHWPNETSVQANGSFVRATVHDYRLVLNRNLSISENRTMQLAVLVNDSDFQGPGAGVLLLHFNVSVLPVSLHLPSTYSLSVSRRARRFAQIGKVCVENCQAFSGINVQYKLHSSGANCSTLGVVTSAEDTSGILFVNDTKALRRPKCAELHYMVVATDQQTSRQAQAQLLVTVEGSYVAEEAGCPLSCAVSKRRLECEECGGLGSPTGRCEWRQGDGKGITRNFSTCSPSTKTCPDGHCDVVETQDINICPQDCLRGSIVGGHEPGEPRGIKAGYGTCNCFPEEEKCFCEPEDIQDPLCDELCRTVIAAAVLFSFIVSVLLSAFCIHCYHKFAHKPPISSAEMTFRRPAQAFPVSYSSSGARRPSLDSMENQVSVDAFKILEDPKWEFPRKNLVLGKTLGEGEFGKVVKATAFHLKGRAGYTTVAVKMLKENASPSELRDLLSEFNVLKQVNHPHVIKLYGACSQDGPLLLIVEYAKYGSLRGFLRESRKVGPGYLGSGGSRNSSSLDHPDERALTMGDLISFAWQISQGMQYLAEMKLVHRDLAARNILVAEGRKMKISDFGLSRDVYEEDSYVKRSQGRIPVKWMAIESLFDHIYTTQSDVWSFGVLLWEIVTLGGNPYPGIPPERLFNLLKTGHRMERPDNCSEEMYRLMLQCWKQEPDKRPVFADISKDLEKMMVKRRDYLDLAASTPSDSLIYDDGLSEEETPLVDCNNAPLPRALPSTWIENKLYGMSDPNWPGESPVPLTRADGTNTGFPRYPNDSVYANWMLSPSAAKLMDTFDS

- inhibition at 1 µM (c-Met): ≥ 75%
- inhibition at 1 µM (Flt-4): ≥ 75%
- inhibition at 1 µM (Flt-1 Alpha): ≥ 50%
- inhibition at 1 µM (KDR): ≤ 25%
- inhibition at 1 µM (Aurora B MP): ≥ 75%
- inhibition at 1 µM (Flt-3): ≥ 50%
- inhibition at 1 µM (RET): ≥ 75%
- peak on plasma radio-chromatograms [2]: major peaks
SMILES: COc1cc2nccc(Oc3ccc(NC(=O)C4(C(=O)Nc5ccc(F)cc5OS(=O)(=O)O)CC4)cc3)c2cc1OC [Compound 9]

- presence in pooled fecal sample ([1]; 0-72 hours post dose): observed
- presence in urine samples ([3]; human urine samples, all intervals): not observed
- IC50 (Flt-4; read-out: Flt-4 Std (IC50)): < 50 nM
- peak on plasma radio-chromatograms [2]: major peaks
SMILES: COc1cc2nccc(Oc3ccc(NC(=O)C4(C(=O)Nc5ccc(F)cc5)CC4)cc3)c2cc1OC [Cabozantinib, N-(4-{[6,7-bis(methyloxy)quinolin-4-yl]oxy}phenyl)-N′-(4-fluorophenyl)cyclopropane-1,1-dicarboxamide, reference compound]

- IC50 (c-Met): < 50 nM
- IC50 (Flt-1 Alpha): 500 to 5000 nM
- IC50 (KDR): < 50 nM
- IC50 (Aurora B MP): 50 to 500 nM
- IC50 (Flt-3): < 50 nM
SMILES: COc1cc2nccc(Oc3ccc(NC(=O)C4(C(=O)Nc5ccc(F)c(O)c5)CC4)cc3)c2cc1OC [Compound 13]

- presence in pooled urine sample ([3]; 0-72 hours post dose): observed
- peak on plasma radio-chromatograms [2]: major peaks
SMILES: COc1cc2c(Oc3ccc(NC(=O)C4(C(=O)Nc5ccc(F)cc5)CC4)cc3)cc[n+]([O-])c2cc1OC [Compound 19]

Continued, compound first:

SMILES: COc1cc2nccc(Oc3ccc(NC(=O)C4(C(=O)Nc5ccc(F)cc5O)CC4)cc3)c2cc1OC [Compound 16]
- presence in pooled fecal sample ([1]; 0-72 hours post dose): observed
- presence in pooled fecal sample ([1]; 144-192 hours post dose): observed
- IC50 (c-Met): < 50 nM
- IC50 (Flt-1 Alpha): 500 to 5000 nM
- IC50 (KDR): < 50 nM
- IC50 (Aurora B MP): 50 to 500 nM
- IC50 (Flt-3): < 50 nM

SMILES: COc1cc2nccc(Oc3ccc(NC(=O)C4(C(=O)O)CC4)cc3)c2cc1OC [Compound 7, 1-[4-(6,7-Dimethoxy-quinolin-4-yloxy)-phenylcarbamoyl]-cyclopropane carboxylic acid]
- presence in pooled fecal sample ([1]; 0-72 hours post dose): observed
- presence in pooled fecal sample ([1]; 144-192 hours post dose): observed
- IC50 (c-Met): > 5000 nM
- presence in pooled urine sample ([3]; 0-72 hours post dose): observed
- presence in pooled urine sample ([3]; 144-192 hours post dose): observed
- IC50 (KDR): > 5000 nM
- IC50 (Aurora B MP): 500 to 5000 nM
- IC50 (Flt-3): 500 to 5000 nM
- peak on plasma radio-chromatograms [2]: one of the minor peaks

SMILES: COc1cc2nccc(Oc3ccc(NC(=O)C4(C(=O)O)CC4)cc3)c2cc1OS(=O)(=O)O [Compound 2a]
- inhibition at 1 µM (c-Met): ≥ 50%
- inhibition at 1 µM (Flt-4): ≥ 25%
- inhibition at 1 µM (Flt-1 Alpha): ≤ 25%
- inhibition at 1 µM (KDR): ≤ 25%
- inhibition at 1 µM (Aurora B MP): ≤ 25%
- inhibition at 1 µM (Flt-3): ≤ 25%
- inhibition at 1 µM (RET): ≤ 25%

Reference: US10273211B2, “Metabolites of N-{4-([6,7-bis(methyloxy)quinolin-4-yl]oxy}phenyl)-N′-(4-fluorophenyl)cyclopropane-1,1-dicarboxamide” (Exelixis, Inc., priority 2013, dated 2019)
